Reference: patent publication US9051310B2, “Nicotinamide derivative or salt thereof” (FUJIFILM Corporation, priority 2011, dated 2015)

Biological target: T1, glutathione S-transferase (GST)-linked full-length human Syk protein (Homo sapiens, UniProt P43405)
T1 construct: glutathione S-transferase (GST)-linked full-length human Syk protein; purchased Carna Biosciences; host or cells: Baculovirus expression system
Experiment: Syk enzyme assay
Assay type: biochemical
Conditions: 0.83 nM Syk, time-resolved fluorescence; read-out: IC50 of Syk-inhibitory activity
Procedure: A glutathione S-transferase (GST)-linked full-length human Syk protein (Carna Biosciences), which had been generated using a Baculovirus expression system, was used in the Syk enzyme assay.
7.5 μl of a reaction solution (0.83 nM Syk, 20 mM HEPES, 10 mM MgCl2, 50 mM NaCl, 2 mM DTT, 0.05% BSA, pH 7.0) containing a Syk protein and a predetermined concentration of a test compound was shaken for 2 minutes, and it was then left at rest at room temperature for 13 minutes. Thereafter, 0.5 μM substrate peptide (Biotin-[…]-NH2) and 5 μL of a solution containing 67.5 μM ATP were added to the reaction solution, and the obtained mixture was then shaken for 2 minutes. The reaction solution was further left at rest at room temperature for 40 minutes, so as to carry out an enzyme reaction.
Thereafter, 50 μL of a reaction termination solution [60 nM APC-SA, 0.45 μg/mL Eu-PT66, 30 mM HEPES (pH 7.0), 150 mM KF, 30 mM EDTA, 0.15% BSA, 0.075% Tween20] containing Allophycocyanin-Streptavidin (APC-SA; PerkinElmer) and an Eu-W1024-labeled anti-phosphotyrosine PT66 antibody (Eu-PT66; PerkinElmer) was added to the reaction solution to terminate the enzyme reaction. At the same time, the reaction solution was left at rest at room temperature for 1 hour, so as to carry out an antigen-antibody reaction. Thereafter, using EnVision (PerkinElmer), the level of time-resolved fluorescence was measured at 615 nm and 665 nm, so that the phosphorylation of the substrate peptide was measured.
The following are used in Table 5 to denote standards for evaluating IC50 of Syk-inhibitory activity. • A: Up to 10 nM • B: 10 to 50 nM • C: 50 to 100 nM

IC50, < 10 nM:
CC(C)C[C@H](CN)Nc1nc(Nc2ccc3c(c2)c(N(C)C)nn3C)c(C(N)=O)cc1F [Example 2-86, (R)-6-((1-amino-4-methylpentan-2-yl)amino)-2-((3-(dimethylamino)-1-methyl-1H-indazol-5-yl)amino)-5-fluoronicotinamide]
CCCC[C@@H](Nc1nc(Nc2cccc3c2cnn3CC)c(C(N)=O)cc1F)[C@H](C)N [Example 2-99, 6-(((2S,3R)-2-aminoheptan-3-yl)amino)-2-((1-ethyl-1H-indazol-4-yl)amino)-5-fluoronicotinamide]
COC[C@@H](Nc1nc(Nc2ccc3c(c2)c(N(C)C)nn3C)c(C(N)=O)cc1F)[C@H](C)N [Example 2-120, 6-(((2S,3S)-3-amino-1-methoxybutan-2-yl)amino)-2-((3-(dimethylamino)-1-methyl-1H-indazol-5-yl)amino)-5-fluoronicotinamide]
COc1nn(C)c2c(F)cc(Nc3nc(N[C@H](C4CC4)[C@H](C)N)c(F)cc3C(N)=O)cc12 [Example 2-154, 6-(((1R,2S)-2-amino-1-cyclopropylpropyl)amino)-5-fluoro-2-((7-fluoro-3-methoxy-1-methyl-1H-indazol-5-yl)amino)nicotinamide]
CCCC[C@@H](Nc1nc(Nc2cc(F)c3c(c2)c(OC)nn3C)c(C(N)=O)cc1F)[C@H](C)N [Example 2-155, 6-(((2S,3R)-2-aminoheptan-3-yl)amino)-5-fluoro-2-((7-fluoro-3-methoxy-1-methyl-1H-indazol-5-yl)amino)nicotinamide]
COc1nn(C)c2c(F)cc(Nc3nc(N[C@H](CC(C)C)[C@H](C)N)c(F)cc3C(N)=O)cc12 [Example 2-156, 6-(((2S,3R)-2-amino-5-methylhexan-3-yl)amino)-5-fluoro-2-((7-fluoro-3-methoxy-1-methyl-1H-indazol-5-yl)amino)nicotinamide]
COc1nn(C)c2c(F)cc(Nc3nc(N[C@H](CC4CC4)[C@H](C)N)c(F)cc3C(N)=O)cc12 [Example 2-157, 6-(((2R,3S)-3-amino-1-cyclopropylbutan-2-yl)amino)-5-fluoro-2-((7-fluoro-3-methoxy-1-methyl-1H-indazol-5-yl)amino)nicotinamide]
CC[C@H](N)[C@@H](CC)Nc1nc(Nc2cc(F)c3c(c2)c(OC)nn3C)c(C(N)=O)cc1F [Example 2-160, 6-(((3R,4S)-4-aminohexan-3-yl)amino)-5-fluoro-2-((7-fluoro-3-methoxy-1-methyl-1H-indazol-5-yl)amino)nicotinamide]

IC50, 50 to 100 nM:
CCn1ncc2c(Nc3nc(N[C@H](C(C)C)[C@H](C)N)c(F)cc3C(N)=O)cccc21 [Example 2-97, 6-(((2S,3R)-2-amino-4-methylpentan-3-yl)amino)-2-((1-ethyl-1H-indazol-4-yl)amino)-5-fluoronicotinamide]
CC(C)[C@@H](Nc1nc(Nc2ccc3cnn(C)c3c2)c(C(N)=O)cc1F)[C@H](C)N [Example 2-102, 6-(((2S,3R)-2-amino-4-methylpentan-3-yl)amino)-5-fluoro-2-((1-methyl-1H-indazol-6-yl)amino)nicotinamide]
CCn1ncc2ccc(Nc3nc(N[C@H](C(C)C)[C@H](C)N)c(F)cc3C(N)=O)cc21 [Example 2-103, 6-(((2S,3R)-2-amino-4-methylpentan-3-yl)amino)-2-((1-ethyl-1H-indazol-6-yl)amino)-5-fluoronicotinamide]
CC(C)[C@@H](Nc1nc(Nc2ccc3c(cnn3C)c2)c(C(N)=O)cc1F)[C@H](C)N [Example 2-104, 6-(((2S,3R)-2-amino-4-methylpentan-3-yl)amino)-5-fluoro-2-((1-methyl-1H-indazol-5-yl)amino)nicotinamide]
COc1cc(Nc2nc(N[C@H](C(C)C)[C@H](C)N)c(F)cc2C(N)=O)ccn1 [Example 2-107, 6-(((2S,3R)-2-amino-4-methylpentan-3-yl)amino)-5-fluoro-2-((2-methoxypyridin-4-yl)amino)nicotinamide]
COc1cc(Nc2nc(N[C@H](C(C)C)[C@H](C)N)c(F)cc2C(N)=O)cc(OC)n1 [Example 2-108, 6-(((2S,3R)-2-amino-4-methylpentan-3-yl)amino)-2-((2,6-dimethoxypyridin-4-yl)amino)-5-fluoronicotinamide]
CC[C@@H](Nc1nc(Nc2cnc(OCCOC)c(F)c2)c(C(N)=O)cc1F)[C@H](C)N [Example 2-117, 6-(((2S,3R)-2-aminopentan-3-yl)amino)-5-fluoro-2-((5-fluoro-6-(2-methoxyethoxy)pyridin-3-yl)amino)nicotinamide]
CCC[C@@H](Nc1nc(Nc2cnc(OCCOC)c(F)c2)c(C(N)=O)cc1F)[C@H](C)N [Example 2-118, 6-(((2S,3R)-2-aminohexan-3-yl)amino)-5-fluoro-2-((5-fluoro-6-(2-methoxyethoxy)pyridin-3-yl)amino)nicotinamide]

IC50, 10 to 50 nM:
COc1nn(C)c2ccc(Nc3nc(N[C@H](C(C)C)[C@H](C)N)c(F)cc3C(N)=O)cc12 [Example 2-81, 6-(((2S,3R)-2-amino-4-methylpentan-3-yl)amino)-5-fluoro-2-((3-methoxy-1-methyl-1H-indazol-5-yl)amino)nicotinamide]
CCCC[C@@H](Nc1nc(Nc2ccc3c(c2)c(N(C)C)nn3C)c(C(N)=O)cc1F)[C@H](C)N [Example 2-90, 6-(((2S,3R)-2-aminoheptan-3-yl)amino)-2-((3-(dimethylamino)-1-methyl-1H-indazol-5-yl)amino)-5-fluoronicotinamide]
CC[C@H](N)[C@@H](CC)Nc1nc(Nc2ccc3c(c2)c(N(C)C)nn3C)c(C(N)=O)cc1F [Example 2-92, 6-(((3R,4S)-4-aminohexan-3-yl)amino) 2-((3-(dimethylamino)-1-methyl-1H-indazol-5-yl)amino)-5-fluoronicotinamide]
CCn1ncc2cc(Nc3nc(N[C@H](C(C)C)[C@H](C)N)c(F)cc3C(N)=O)ccc21 [Example 2-105, 6-(((2S,3R)-2-amino-4-methylpentan-3-yl)amino)-2-((1-ethyl-1H-indazol-5-yl)amino)-5-fluoronicotinamide]
CC(C)[C@@H](Nc1nc(Nc2cncc(C3CC3)c2)c(C(N)=O)cc1F)[C@H](C)N [Example 2-111, 6-(((2S,3R)-2-amino-4-methylpentan-3-yl)amino)-2-((5-cyclopropylpyridin-3-yl)amino)-5-fluoronicotinamide]
COc1ncc(Nc2nc(N[C@H](CC(C)C)[C@H](C)N)c(F)cc2C(N)=O)cc1-n1nccn1 [Example 2-112, 6-(((2S,3R)-2-amino-5-methylhexan-3-yl)amino)-5-fluoro-2-((6-methoxy-5-(2H-1,2,3-triazol-2-yl)pyridin-3-yl)amino)nicotinamide]
COCCOc1ncc(Nc2nc(N[C@H](C3CC3)[C@H](C)N)c(F)cc2C(N)=O)cc1F [Example 2-115, 6-(((1R,2S)-2-amino-1-cyclopropylpropyl)amino)-5-fluoro-2-((5-fluoro-6-(2-methoxyethoxy)pyridin-3-yl)amino)nicotinamide]
COCCOc1ncc(Nc2nc(N[C@H](CC(C)C)[C@H](C)N)c(F)cc2C(N)=O)cc1F [Example 2-119, 6-(((2S,3R)-2-amino-5-methylhexan-3-yl)amino)-5-fluoro-2-((5-fluoro-6-(2-methoxyethoxy)pyridin-3-yl)amino)nicotinamide]
COCCOc1ncc(Nc2nc(N[C@H](CC(C)C)[C@H](C)N)c(F)cc2C(N)=O)cc1-n1nccn1 [Example 2-140, 6-(((2S,3R)-2-amino-5-methylhexan-3-yl)amino)-5-fluoro-2-((6-(2-methoxyethoxy)-5-(2H-1,2,3-triazol-2-yl)pyridin-3-yl)amino)nicotinamide]
COCCOc1ncc(Nc2nc(N[C@H](C3CC3)[C@H](C)N)c(F)cc2C(N)=O)cc1-n1nccn1 [Example 2-161, 6-(((1R,2S)-2-amino-1-cyclopropylpropyl)amino)-5-fluoro-2-((6-(2-methoxyethoxy)-5-(2H-1,2,3-triazol-2-yl)pyridin-3-yl)amino)nicotinamide]
CCOc1ncc(Nc2nc(N[C@H](C3CC3)[C@H](C)N)c(F)cc2C(N)=O)cc1-n1cccn1 [Example 2-164]
COCCOc1ncc(Nc2nc(N[C@H](C3CCC3)[C@H](C)N)c(F)cc2C(N)=O)cc1-n1nccn1 [Example 2-165, 6-(((1R,2S)-2-amino-1-cyclobutylpropyl)amino)-5-fluoro-2-((6-(2-methoxyethoxy)-5-(2H-1,2,3-triazol-2-yl)pyridin-3-yl)amino)nicotinamide]
